Laboratory results published in ChEMBL document CHEMBL1201862, “PubChem BioAssay data set” (2004).
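1) Cells in 96-well plates. 2) Compound, 48 h, 5 concentrations. 3) Linear interpolation between surrounding doses. 4) Unreached endpoint = highest concentration. GI50 is the concentration that inhibits growth by half.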 Active and inactive are the calls of the source. Rule as the data show it: active = GI50 up to about 1.1 µM and inactive = higher.

Assays:
Test in all cases: growth of human tumour cells (NCI), 48 h
[1] = test system: 786-0
[2] = test system: A498
[3] = test system: COLO 205
[4] = test system: DU-145
[5] = test system: HL-60
[6] = test system: KM12
[7] = test system: LOX IMVI
[8] = test system: MCF7
[9] = test system: MDA-MB-231
[10] = test system: MDA-MB-435
[11] = test system: MDA-N
[12] = test system: NCI-H226
[13] = test system: NCI/ADR-RES
[14] = test system: OVCAR-5
[15] = test system: RXF 393
[16] = test system: SF-268
[17] = test system: SK-MEL-28
[18] = test system: SK-MEL-5
[19] = test system: SR
[20] = test system: U-251

| Compound | GI50 [1] | GI50 [2] | GI50 [3] | GI50 [4] | GI50 [5] | GI50 [6] | GI50 [7] | GI50 [8] | GI50 [9] | GI50 [10] | GI50 [11] | GI50 [12] | GI50 [13] | GI50 [14] | GI50 [15] | GI50 [16] | GI50 [17] | GI50 [18] | GI50 [19] | GI50 [20] |
| --- | --- | --- | --- | --- | --- | --- | --- | --- | --- | --- | --- | --- | --- | --- | --- | --- | --- | --- | --- | --- |
| CC(=O)OC1CCC2(C)C(=CCC3C4CCC5(OC6CC(C)CN(C(C)=O)C6C5C)C(C)=C4C(=O)C32)C1 (stereo not given) | 28.1 µM (inactive) | 15.8 µM (inactive) | 14 µM (inactive) | 30.8 µM (inactive) | 81.3 µM (inactive) | 16.7 µM (inactive) | 12 µM (inactive) | 10.5 µM (inactive) | 17.2 µM (inactive) | 15.3 µM (inactive) | 23.6 µM (inactive) | 22.2 µM (inactive) | 18 µM (inactive) | 19.2 µM (inactive) | 16.6 µM (inactive) | 16 µM (inactive) | > 100 µM (inactive) | 10 µM (inactive) | 16 µM (inactive) | 16.2 µM (inactive) |
| O=C(Cn1c(C(=O)/C=C/c2ccc(Cl)cc2)nc2ccccc21)c1ccc(Cl)cc1 | 20.6 µM (inactive) | 32.3 µM (inactive) | 16.5 µM (inactive) | 21.7 µM (inactive) | 10.1 µM (inactive) | 7.26 µM (inactive) | 16 µM (inactive) | 15.2 µM (inactive) | 19.9 µM (inactive) | 17.1 µM (inactive) | 20.7 µM (inactive) | 21.4 µM (inactive) | 20.5 µM (inactive) | 26.8 µM (inactive) | 15.5 µM (inactive) | 23.3 µM (inactive) | 21.7 µM (inactive) | 14.8 µM (inactive) | 4.25 µM (inactive) | 11.5 µM (inactive) |
| O=C1Nc2ccc(S(=O)(=O)O)cc2/C1=C1/Nc2ccc(Br)cc2C1=O | > 100 µM (inactive) | > 100 µM (inactive) | > 100 µM (inactive) | > 100 µM (inactive) | > 100 µM (inactive) | > 100 µM (inactive) | > 100 µM (inactive) | 72.8 µM (inactive) | > 100 µM (inactive) | > 100 µM (inactive) | > 100 µM (inactive) | > 100 µM (inactive) | > 100 µM (inactive) | > 100 µM (inactive) | > 100 µM (inactive) | > 100 µM (inactive) | > 100 µM (inactive) | > 100 µM (inactive) | > 100 µM (inactive) | > 100 µM (inactive) |
| COCn1c(=O)n(C)c(=O)c2c1nc1c(c(=O)n(C)c(=O)n1COC)[n+]2[O-] | 18.4 µM (inactive) | 31.2 µM (inactive) | 12.5 µM (inactive) | 17.1 µM (inactive) | 12.7 µM (inactive) | 13.3 µM (inactive) | 6.68 µM (inactive) | 20.4 µM (inactive) | 15.3 µM (inactive) | 5.75 µM (inactive) | 4.32 µM (inactive) | 10.1 µM (inactive) | 59 µM (inactive) | 25.1 µM (inactive) | 0.789 µM (active) | 6.65 µM (inactive) | 35.9 µM (inactive) | 5.83 µM (inactive) | 3.77 µM (inactive) | 5.85 µM (inactive) |
| CC(NC(=O)C(N)Cc1ccc(O)cn1)C(=O)O (stereo not given) | > 100 µM (inactive) | > 100 µM (inactive) | > 100 µM (inactive) | > 100 µM (inactive) | > 100 µM (inactive) | > 100 µM (inactive) | > 100 µM (inactive) | > 100 µM (inactive) | > 100 µM (inactive) | > 100 µM (inactive) | > 100 µM (inactive) | > 100 µM (inactive) | > 100 µM (inactive) | > 100 µM (inactive) | > 100 µM (inactive) | > 100 µM (inactive) | > 100 µM (inactive) | > 100 µM (inactive) | > 100 µM (inactive) | > 100 µM (inactive) |
| Clc1ccc(C(c2ccccc2Cl)C(Cl)Cl)cc1 (stereo not given) [MITOTANE] | 19.2 µM (inactive) | 20.2 µM (inactive) | 17.3 µM (inactive) | 3.3 µM (inactive) | 18.7 µM (inactive) | 16 µM (inactive) | 21.3 µM (inactive) | 19.2 µM (inactive) | 3.39 µM (inactive) | 3.08 µM (inactive) | 18 µM (inactive) | 16.5 µM (inactive) | 15.3 µM (inactive) | 18 µM (inactive) | 11.6 µM (inactive) | 18.5 µM (inactive) | 18.9 µM (inactive) | 15.8 µM (inactive) | 18.7 µM (inactive) | 16.6 µM (inactive) |
